Laboratory results taken from ChEMBL document CHEMBL3608278 (J Med Chem, 2015).

Key:
[1] = target: T1, Potassium voltage-gated channel subfamily A member 3 (Homo sapiens, UniProt P22001); test: cell-based; parameters: species or system Blood
[2] = target: T1, Potassium voltage-gated channel subfamily A member 3; parameters: species or system Blood
[3] = target: T1, Potassium voltage-gated channel subfamily A member 3; type: cell-based, CHO-K1

T1 sequence (P22001 whole entry): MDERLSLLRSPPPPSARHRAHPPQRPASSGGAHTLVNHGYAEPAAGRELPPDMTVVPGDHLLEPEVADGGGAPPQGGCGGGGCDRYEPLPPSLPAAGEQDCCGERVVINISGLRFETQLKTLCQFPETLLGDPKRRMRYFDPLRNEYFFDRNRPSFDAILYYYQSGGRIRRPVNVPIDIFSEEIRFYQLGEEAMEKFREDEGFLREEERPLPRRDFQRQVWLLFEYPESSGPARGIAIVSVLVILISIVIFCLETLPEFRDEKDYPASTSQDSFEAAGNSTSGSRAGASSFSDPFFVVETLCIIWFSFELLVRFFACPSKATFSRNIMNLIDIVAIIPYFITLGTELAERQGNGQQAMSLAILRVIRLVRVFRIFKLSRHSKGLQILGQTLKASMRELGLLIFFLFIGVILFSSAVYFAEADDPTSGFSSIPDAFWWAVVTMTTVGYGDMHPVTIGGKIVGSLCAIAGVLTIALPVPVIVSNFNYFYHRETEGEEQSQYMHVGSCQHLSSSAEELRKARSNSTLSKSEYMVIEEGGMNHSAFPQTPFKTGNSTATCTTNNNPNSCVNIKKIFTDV

## CC[C@H](C)[C@@H]1NC(=O)[C@@H](NC(=O)[C@H](CO)NC(=O)[C@@H](N)CCCNC(=N)N)CSSC[C@@H](C(=O)O)NC(=O)[C@H]([C@@H](C)O)NC(=O)CNC(=O)[C@@H]2CSSC[C@@H]3NC(=O)[C@H](CCCNC(=N)N)NC(=O)[C@H](Cc4ccccc4)NC(=O)[C@H](C)NC(=O)[C@H]([C@@H](C)O)NC(=O)[C@H](CSSC[C@H](NC(=O)[C@H](Cc4ccccc4)NC(=O)[C@H](CO)NC(=O)[C@H](CC(C)C)NC(=O)[C@H](CCCNC(=N)N)NC(=O)[C@H](Cc4ccc(O)cc4)NC(=O)[C@H](CCCCN)NC(=O)[C@H](CCSC)NC(=O)[C@H](CO)NC(=O)[C@H](Cc4cnc[nH]4)NC(=O)[C@H](CCCCN)NC3=O)C(=O)N[C@@H](CCCNC(=N)N)C(=O)N[C@@H](CCCCN)C(=O)N[C@@H]([C@@H](C)O)C(=O)N2)NC(=O)[C@H](CCCNC(=N)N)NC(=O)[C@H](CO)NC(=O)[C@H](CCCCN)NC(=O)[C@@H]2CCCN2C(=O)[C@H]([C@@H](C)CC)NC(=O)[C@H]([C@@H](C)O)NC(=O)[C@H](CC(=O)O)NC1=O
[1]
  IC50: 0.372 nM
[2]
  IC50: 0.492 nM
[3]
  IC50: 0.166 nM

## CC[C@H](C)[C@@H]1NC(=O)[C@@H](NC(=O)[C@H](CO)NC(=O)[C@@H](N)CCCNC(=N)N)CSSC[C@@H](C(=O)O)NC(=O)[C@H]([C@@H](C)O)NC(=O)CNC(=O)[C@@H]2CSSC[C@@H]3NC(=O)[C@H](CCC(N)=O)NC(=O)[C@H](Cc4ccccc4)NC(=O)[C@H](C)NC(=O)[C@H]([C@@H](C)O)NC(=O)[C@H](CSSC[C@H](NC(=O)[C@H](Cc4ccccc4)NC(=O)[C@H](CO)NC(=O)[C@H](CC(C)C)NC(=O)[C@H](CCCNC(=N)N)NC(=O)[C@H](Cc4ccc(O)cc4)NC(=O)[C@H](CCCCN)NC(=O)[C@H](CCSC)NC(=O)[C@H](CO)NC(=O)[C@H](Cc4cnc[nH]4)NC(=O)[C@H](CCCNC(=N)N)NC3=O)C(=O)N[C@@H](CCCNC(=N)N)C(=O)N[C@@H](CCCCN)C(=O)N[C@@H]([C@@H](C)O)C(=O)N2)NC(=O)[C@H](CCCNC(=N)N)NC(=O)[C@H](CO)NC(=O)[C@H](CCCCN)NC(=O)[C@@H]2CCCN2C(=O)[C@H]([C@@H](C)CC)NC(=O)[C@H]([C@@H](C)O)NC(=O)[C@H](CC(=O)O)NC1=O
[1]
  IC50: 0.038 nM
[2]
  IC50: 0.056 nM
[3]
  IC50: 0.104 nM

## CC[C@H](C)[C@@H]1NC(=O)[C@@H](NC(=O)[C@H](CO)NC(=O)[C@@H](N)CCCNC(=N)N)CSSC[C@@H](C(=O)O)NC(=O)[C@H]([C@@H](C)O)NC(=O)CNC(=O)[C@@H]2CSSC[C@@H]3NC(=O)[C@H](CCC(N)=O)NC(=O)[C@H](Cc4ccccc4)NC(=O)[C@H](C)NC(=O)[C@H]([C@@H](C)O)NC(=O)[C@H](CSSC[C@H](NC(=O)[C@H](Cc4ccccc4)NC(=O)[C@H](CO)NC(=O)[C@H](CC(C)C)NC(=O)[C@H](CCCNC(=N)N)NC(=O)[C@H](Cc4ccc(O)cc4)NC(=O)[C@H](CCCCN)NC(=O)[C@H](CCSC)NC(=O)[C@H](CO)NC(=O)[C@H](CCCNC(=N)N)NC(=O)[C@H](CCCCN)NC3=O)C(=O)N[C@@H](CCCNC(=N)N)C(=O)N[C@@H](CCCCN)C(=O)N[C@@H]([C@@H](C)O)C(=O)N2)NC(=O)[C@H](CCCNC(=N)N)NC(=O)[C@H](CO)NC(=O)[C@H](CCCCN)NC(=O)[C@@H]2CCCN2C(=O)[C@H]([C@@H](C)CC)NC(=O)[C@H]([C@@H](C)O)NC(=O)[C@H](CC(=O)O)NC1=O
[1]
  IC50: 0.114 nM
[2]
  IC50: 0.282 nM
[3]
  IC50: 0.095 nM

## CC[C@H](C)[C@@H]1NC(=O)[C@@H](NC(=O)[C@H](CO)NC(=O)[C@@H](N)CCCNC(=N)N)CSSC[C@@H](C(=O)O)NC(=O)[C@H]([C@@H](C)O)NC(=O)CNC(=O)[C@@H]2CSSC[C@@H]3NC(=O)[C@H](CCC(N)=O)NC(=O)[C@H](Cc4ccccc4)NC(=O)[C@H](C)NC(=O)[C@H]([C@@H](C)O)NC(=O)[C@H](CSSC[C@H](NC(=O)[C@H](Cc4ccccc4)NC(=O)[C@H](CO)NC(=O)[C@H](CC(C)C)NC(=O)[C@H](CCCNC(=N)N)NC(=O)[C@H](Cc4ccc(O)cc4)NC(=O)[C@H](CCCCN)NC(=O)[C@H](CCSC)NC(=O)[C@H](CCCNC(=N)N)NC(=O)[C@H](Cc4cnc[nH]4)NC(=O)[C@H](CCCCN)NC3=O)C(=O)N[C@@H](CCCNC(=N)N)C(=O)N[C@@H](CCCCN)C(=O)N[C@@H]([C@@H](C)O)C(=O)N2)NC(=O)[C@H](CCCNC(=N)N)NC(=O)[C@H](CO)NC(=O)[C@H](CCCCN)NC(=O)[C@@H]2CCCN2C(=O)[C@H]([C@@H](C)CC)NC(=O)[C@H]([C@@H](C)O)NC(=O)[C@H](CC(=O)O)NC1=O
[1]
  IC50: 25.3 nM
[2]
  IC50: 40.3 nM
[3]
  IC50: > 3.33 nM

## CC[C@H](C)[C@@H]1NC(=O)[C@@H](NC(=O)[C@H](CO)NC(=O)[C@@H](N)CCCNC(=N)N)CSSC[C@@H](C(=O)O)NC(=O)[C@H]([C@@H](C)O)NC(=O)CNC(=O)[C@@H]2CSSC[C@@H]3NC(=O)[C@H](CCC(N)=O)NC(=O)[C@H](Cc4ccccc4)NC(=O)[C@H](C)NC(=O)[C@H]([C@@H](C)O)NC(=O)[C@H](CSSC[C@H](NC(=O)[C@H](Cc4ccccc4)NC(=O)[C@H](CO)NC(=O)[C@H](CC(C)C)NC(=O)[C@H](CCCNC(=N)N)NC(=O)[C@H](Cc4ccc(O)cc4)NC(=O)[C@H](CCCCN)NC(=O)[C@H](CCCNC(=N)N)NC(=O)[C@H](CO)NC(=O)[C@H](Cc4cnc[nH]4)NC(=O)[C@H](CCCCN)NC3=O)C(=O)N[C@@H](CCCNC(=N)N)C(=O)N[C@@H](CCCCN)C(=O)N[C@@H]([C@@H](C)O)C(=O)N2)NC(=O)[C@H](CCCNC(=N)N)NC(=O)[C@H](CO)NC(=O)[C@H](CCCCN)NC(=O)[C@@H]2CCCN2C(=O)[C@H]([C@@H](C)CC)NC(=O)[C@H]([C@@H](C)O)NC(=O)[C@H](CC(=O)O)NC1=O
[1]
  IC50: 1.49 nM
[2]
  IC50: 3.08 nM
[3]
  IC50: 0.259 nM

## CC[C@H](C)[C@@H]1NC(=O)[C@@H](NC(=O)[C@H](CO)NC(=O)[C@@H](N)CCCNC(=N)N)CSSC[C@@H](C(=O)O)NC(=O)[C@H]([C@@H](C)O)NC(=O)CNC(=O)[C@@H]2CSSC[C@@H]3NC(=O)[C@H](CCC(N)=O)NC(=O)[C@H](Cc4ccccc4)NC(=O)[C@H](C)NC(=O)[C@H]([C@@H](C)O)NC(=O)[C@H](CSSC[C@H](NC(=O)[C@H](Cc4ccccc4)NC(=O)[C@H](CO)NC(=O)[C@H](CC(C)C)NC(=O)[C@H](CCCNC(=N)N)NC(=O)[C@H](Cc4ccc(O)cc4)NC(=O)[C@H](CCCNC(=N)N)NC(=O)[C@H](CCSC)NC(=O)[C@H](CO)NC(=O)[C@H](Cc4cnc[nH]4)NC(=O)[C@H](CCCCN)NC3=O)C(=O)N[C@@H](CCCNC(=N)N)C(=O)N[C@@H](CCCCN)C(=O)N[C@@H]([C@@H](C)O)C(=O)N2)NC(=O)[C@H](CCCNC(=N)N)NC(=O)[C@H](CO)NC(=O)[C@H](CCCCN)NC(=O)[C@@H]2CCCN2C(=O)[C@H]([C@@H](C)CC)NC(=O)[C@H]([C@@H](C)O)NC(=O)[C@H](CC(=O)O)NC1=O
[1]
  IC50: > 100 nM
[2]
  IC50: > 100 nM
[3]
  IC50: > 3.33 nM

## CC[C@H](C)[C@@H]1NC(=O)[C@@H](NC(=O)[C@H](CO)NC(=O)[C@@H](N)CCCNC(=N)N)CSSC[C@@H](C(=O)O)NC(=O)[C@H]([C@@H](C)O)NC(=O)CNC(=O)[C@@H]2CSSC[C@@H]3NC(=O)[C@H](CCC(N)=O)NC(=O)[C@H](Cc4ccccc4)NC(=O)[C@H](C)NC(=O)[C@H]([C@@H](C)O)NC(=O)[C@H](CSSC[C@H](NC(=O)[C@H](Cc4ccccc4)NC(=O)[C@H](CO)NC(=O)[C@H](CC(C)C)NC(=O)[C@H](CCCNC(=N)N)NC(=O)[C@H](CCCNC(=N)N)NC(=O)[C@H](CCCCN)NC(=O)[C@H](CCSC)NC(=O)[C@H](CO)NC(=O)[C@H](Cc4cnc[nH]4)NC(=O)[C@H](CCCCN)NC3=O)C(=O)N[C@@H](CCCNC(=N)N)C(=O)N[C@@H](CCCCN)C(=O)N[C@@H]([C@@H](C)O)C(=O)N2)NC(=O)[C@H](CCCNC(=N)N)NC(=O)[C@H](CO)NC(=O)[C@H](CCCCN)NC(=O)[C@@H]2CCCN2C(=O)[C@H]([C@@H](C)CC)NC(=O)[C@H]([C@@H](C)O)NC(=O)[C@H](CC(=O)O)NC1=O
[1]
  IC50: > 100 nM
[2]
  IC50: > 100 nM
[3]
  IC50: > 3.33 nM

## CC[C@H](C)[C@@H]1NC(=O)[C@@H](NC(=O)[C@H](CO)NC(=O)[C@@H](N)CCCNC(=N)N)CSSC[C@@H](C(=O)O)NC(=O)[C@H]([C@@H](C)O)NC(=O)CNC(=O)[C@@H]2CSSC[C@@H]3NC(=O)[C@H](CCC(N)=O)NC(=O)[C@H](Cc4ccccc4)NC(=O)[C@H](C)NC(=O)[C@H]([C@@H](C)O)NC(=O)[C@H](CSSC[C@H](NC(=O)[C@H](CCCNC(=N)N)NC(=O)[C@H](CO)NC(=O)[C@H](CC(C)C)NC(=O)[C@H](CCCNC(=N)N)NC(=O)[C@H](Cc4ccc(O)cc4)NC(=O)[C@H](CCCCN)NC(=O)[C@H](CCSC)NC(=O)[C@H](CO)NC(=O)[C@H](Cc4cnc[nH]4)NC(=O)[C@H](CCCCN)NC3=O)C(=O)N[C@@H](CCCNC(=N)N)C(=O)N[C@@H](CCCCN)C(=O)N[C@@H]([C@@H](C)O)C(=O)N2)NC(=O)[C@H](CCCNC(=N)N)NC(=O)[C@H](CO)NC(=O)[C@H](CCCCN)NC(=O)[C@@H]2CCCN2C(=O)[C@H]([C@@H](C)CC)NC(=O)[C@H]([C@@H](C)O)NC(=O)[C@H](CC(=O)O)NC1=O
[1]
  IC50: 13 nM
[2]
  IC50: 59.7 nM
[3]
  IC50: > 3.33 nM

## CC[C@H](C)[C@@H]1NC(=O)[C@@H](NC(=O)[C@H](CO)NC(=O)[C@@H](N)CCCNC(=N)N)CSSC[C@@H](C(=O)O)NC(=O)[C@H]([C@@H](C)O)NC(=O)CNC(=O)[C@@H]2CSSC[C@@H]3NC(=O)[C@H](CCC(N)=O)NC(=O)[C@H](Cc4ccccc4)NC(=O)[C@H](C)NC(=O)[C@H]([C@@H](C)O)NC(=O)[C@H](CSSC[C@H](NC(=O)[C@H](Cc4ccccc4)NC(=O)[C@H](CO)NC(=O)[C@H](CC(C)C)NC(=O)[C@H](CCCNC(=N)N)NC(=O)[C@H](Cc4ccc(O)cc4)NC(=O)[C@H](CCCCN)NC(=O)[C@H](CCSC)NC(=O)[C@H](CO)NC(=O)[C@H](Cc4c[nH]cn4)NC(=O)[C@H](CCCCN)NC3=O)C(=O)N[C@@H](CCCNC(=N)N)C(=O)N[C@@H](CCCCN)C(=O)N[C@@H](CCCNC(=N)N)C(=O)N2)NC(=O)[C@H](CCCNC(=N)N)NC(=O)[C@H](CO)NC(=O)[C@H](CCCCN)NC(=O)[C@@H]2CCCN2C(=O)[C@H]([C@@H](C)CC)NC(=O)[C@H]([C@@H](C)O)NC(=O)[C@H](CC(=O)O)NC1=O
[1]
  IC50: 11.1 nM
[2]
  IC50: 39 nM
[3]
  IC50: > 3.33 nM
